What was measured:
PBP5 (dacA) from E. coli = PBP5 (dacA) from E. coli (Escherichia coli, UniProt P0AEB2); test: Inhibition studies for penicillin binding proteins, PBP5; format: biochemical; conditions: for remaining activity at 100 µM: read-out: RA (residual activity); as to Inhibition verdict: key: N.I.—not inhibited
Procedure: (§1) To investigate the selectivity of ML302/ML302F for bacterial MBLs, activity was tested against TEM-1 (a Class A SBL), PBP-5 (penicillin-binding protein 5 or dacA) and PBP-6 (penicillin-binding protein 6, or dacC) from E. coli, hHAT (human histone acetyltransferase) and hHDAC (human histone deacetylase). TEM-1, PBP-5 and -6 and hHAT are known to be inhibited by rhodanines. Selectively against hACE-2 (Angiotensin converting enzyme 2) and hHAGH (Hydroxyacylglutathione hydrolase, human Glyoxylase II) was also tested.
(§2) The inhibition analyses were performed using the method previously described for PBP-3 (van Berkel, S. S. et al. Binding of (5 S)-penicilloic acid to penicillin binding protein 3.ACS Chem. Biol. 8, 2112-2116 (2013)). In brief: ML302 and ML302F were initially screened at a single concentration (100 μM) in duplicate. Inhibition of the PBP acylation rate by the chromogenic β-lactam Nitrocefin was determined by pre-incubation of the appropriate amount of enzyme (dacA 2 μM and dacC 6.8 μM, respectively) and inhibitor in the assay buffer (50 mM HEPES-NaOH buffer (pH 7.2) supplemented with 200 mM NaCl and 0.01% Triton 100) for 10 min. at r.t. prior to the initiation of the assay by the addition of nitrocefin (100 μM final concentration). The hydrolysis of Nitrocefin was monitored by following the variation in absorbance at 492 nm using 96 well flat bottom plates (UV-STAR Microplate (655801) or Greiner Bio-One). The experiments were performed using a PHERAstar FS—BMG Labtech microplate reader (using path length correction) at r.t. (24-25° C.). All enzymes and inhibitors were prepared in the assay buffer.

PBP6 (dacC) from E. coli = PBP6 (dacC) from E. coli (Escherichia coli, UniProt P08506); test: Inhibition studies for penicillin binding proteins, PBP6; format: biochemical; conditions: for Inhibition verdict: 100 μM; for remaining activity at 100 µM: read-out: RA (residual activity); as to Inhibition verdict: key: N.I.—not inhibited
Chain of PBP6 (dacC) from E. coli (P08506 28-400): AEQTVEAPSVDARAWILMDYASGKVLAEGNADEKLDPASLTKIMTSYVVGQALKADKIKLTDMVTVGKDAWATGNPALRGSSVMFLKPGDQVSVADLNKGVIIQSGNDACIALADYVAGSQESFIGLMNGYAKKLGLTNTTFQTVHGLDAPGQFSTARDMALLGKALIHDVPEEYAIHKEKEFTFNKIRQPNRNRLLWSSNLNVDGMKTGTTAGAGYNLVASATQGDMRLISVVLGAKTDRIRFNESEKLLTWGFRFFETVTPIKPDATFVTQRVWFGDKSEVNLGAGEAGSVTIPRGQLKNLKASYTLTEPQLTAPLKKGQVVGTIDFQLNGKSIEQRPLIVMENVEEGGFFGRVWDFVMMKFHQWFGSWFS
Procedure: as §1, §2

hGlyoxylase II = biological target: T1, hGlyoxylase II (Homo sapiens, UniProt Q16775); test: hHAGH (human Glyoxylase II) assay; format: biochemical; as to Inhibition verdict: key: N.I.—not inhibited
T1 construct: purchased R&D Systems 5944-GO
Procedure: as §1
The inhibition analyses for human histone acetyltransferases (HAT), HDAC hHDAC (human histone deacetylase), hACE-2 (Angiotensin converting enzyme 2) and hHAGH (Hydroxyacylglutathione hydrolase, human Glyoxylase II) were performed using the commercially available HAT Assay Kit (Active Motif, catalogue No. 56100 (2009)), hHDAC (Active Motif, catalogue No. 56200 (2013)), hACE-2 (ACE-2 (R&D Systems) and hHAGH ((R&D Systems).
• Assay Buffer: 50 mM Tris, 250 mM NaCl, pH 7.5 • Recombinant Human Glyoxalase II (rhGlyoxalase II) (Catalog #5944-GO) • Substrate: S-Lactoylglutathione (Sigma, Catalog # L7140), 100 mM stock in deionized water • 5, 5′-dithiobis(2-nitrobenzoic acid) (DTNB) (Sigma, Catalog # D8130), 10 mM stock in DMSO • 96-well Clear Plate (Costar, Catalog #92592) • Plate Reader (Model: SpectraMax Plus by Molecular Devices) or equivalent Assay: 1. Dilute rhGlyoxalase II to 0.4 ng/μL in Assay Buffer. 2. Dilute Substrate to 2 mM in Assay Buffer with 400 IJM DTNB to form Substrate Mixture. 3. Load 50 μL of 0.4 ng/μL rhGlyoxalase II into a plate and start the reaction by loading 50 μL of Substrate Mixture. Include a Substrate Blank containing 50 μL of Assay Buffer and 50 μL of Substrate Mixture. 4. Read at 405 nm (absorbance) in kinetic mode for 5 minutes. 5. Calculate specific activity:
[formula] [formula] [formula] [formula] Note: the output of many spectrophotometers is in mOD. Final Assay Conditions Per Well: rhGlyoxalase II: […] S-Lactoylglutathione: 1 mM DTNB: 200 μM

[1] = test system: Galleria mellonella wax moth larvae; test: In vivo toxicity in wax moth larvae model; conditions: doses up to 80 mg/kg
P. aeruginosa 50 = test: MIC of MEM with and without ML302F (1:8), VIM-2 producer; format: cell-based; conditions: Pseudomonas aeruginosa; P. aeruginosa 50 (VIM-2); MEM alone or with ML302F (1:8)
Procedure: (§3) In a further study, antimicrobial activities of MEM and ML302F alone and in combination were assessed in-vitro against 31 VIM-producing clinical isolates.

P. aeruginosa 15 (14) = test: as above; format: cell-based; conditions: Pseudomonas aeruginosa; P. aeruginosa 15 (14) (VIM-2); MEM alone or with ML302F (1:8)
Procedure: as §3

P. aeruginosa 16 (14) = test: as above; format: cell-based; conditions: Pseudomonas aeruginosa; P. aeruginosa 16 (14) (VIM-2); MEM alone or with ML302F (1:8)
Procedure: as §3

P. aeruginosa GR64 = test: as above; format: cell-based; conditions: Pseudomonas aeruginosa; P. aeruginosa GR64 (VIM-2); MEM alone or with ML302F (1:8)
Procedure: as §3

P. aeruginosa 27 (14) = test: as above; format: cell-based; conditions: Pseudomonas aeruginosa; P. aeruginosa 27 (14) (VIM-2); MEM alone or with ML302F (1:8)
Procedure: as §3

P. aeruginosa 14 (14) = test: as above; format: cell-based; conditions: Pseudomonas aeruginosa; P. aeruginosa 14 (14) (VIM-2); MEM alone or with ML302F (1:8)
Procedure: as §3

P. aeruginosa 9 (13) = test: as above; format: cell-based; conditions: Pseudomonas aeruginosa
Procedure: as §3

P. aeruginosa 11 (14) = test: as above; format: cell-based; conditions: Pseudomonas aeruginosa
Procedure: as §3

P. aeruginosa 12 (14) = test: as above; format: cell-based; conditions: Pseudomonas aeruginosa
Procedure: as §3

P. aeruginosa GR58 = test: as above; format: cell-based; conditions: Pseudomonas aeruginosa; P. aeruginosa GR58 (VIM-2); MEM alone or with ML302F (1:8)
Procedure: as §3

P. aeruginosa 13 (14) = test: as above; format: cell-based; conditions: Pseudomonas aeruginosa; P. aeruginosa 13 (14) (VIM-2); MEM alone or with ML302F (1:8)
Procedure: as §3

P. aeruginosa 8 (13) = test: as above; format: cell-based; conditions: Pseudomonas aeruginosa
Procedure: as §3

Chain of PBP5 (dacA) from E. coli (P0AEB2 30-403): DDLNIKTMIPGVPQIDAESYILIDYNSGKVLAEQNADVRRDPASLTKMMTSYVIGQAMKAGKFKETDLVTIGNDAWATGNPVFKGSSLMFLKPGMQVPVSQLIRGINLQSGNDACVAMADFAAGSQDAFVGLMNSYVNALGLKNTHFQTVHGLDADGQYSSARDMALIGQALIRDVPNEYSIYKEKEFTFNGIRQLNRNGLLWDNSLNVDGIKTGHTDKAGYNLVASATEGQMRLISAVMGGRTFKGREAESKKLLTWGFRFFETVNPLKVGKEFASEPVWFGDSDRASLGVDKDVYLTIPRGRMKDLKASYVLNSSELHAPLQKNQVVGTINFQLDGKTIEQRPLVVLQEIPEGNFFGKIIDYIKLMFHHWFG

Structure (SMILES) | remaining activity at 100 µM (PBP5 (dacA) from E. coli) [%] | Inhibition verdict (PBP6 (dacC) from E. coli) | remaining activity at 100 µM (PBP6 (dacC) from E. coli) [%] | Inhibition verdict (hGlyoxylase II) | RA (residual activity) (hGlyoxylase II) [%] | In vivo toxicity ([1]; G. mellonella, injection) | Survival of all larvae ([1]; injection into hemocoel, at 96 hrs) [%] | Inhibition verdict (PBP5 (dacA) from E. coli; 100 μM) | MIC (P. aeruginosa 50) [µg/mL] | MIC (P. aeruginosa 15 (14)) [µg/mL] | MIC (P. aeruginosa 16 (14)) [µg/mL] | MIC (P. aeruginosa GR64) [µg/mL] | MIC (P. aeruginosa 27 (14)) [µg/mL] | MIC (P. aeruginosa 14 (14)) [µg/mL] | MIC (P. aeruginosa 9 (13)) [µg/mL] | MIC (P. aeruginosa 11 (14)) [µg/mL] | MIC (P. aeruginosa 12 (14)) [µg/mL] | MIC (P. aeruginosa GR58) [µg/mL] | MIC (P. aeruginosa 13 (14)) [µg/mL] | MIC (P. aeruginosa 8 (13)) [µg/mL]
CN1CCN(NC(=O)CN2C(=O)C(=Cc3c(Cl)ccc(Cl)c3Cl)SC2=S)CC1 (mixture of isomers) [ML302, N-(4-Methylpiperazin-1-yl)-2-(4-oxo-2-thioxo-5-(2,3,6-trichlorobenzylidene)thiazolidin-3-yl)acetamide] | 105 ± 5.7 | N.I. | 97.7 ± 3.8 | N.I. | 98 ± 3 | – | – | – | – | – | – | – | – | – | – | – | – | – | – | –
O=C(O)C(S)=Cc1c(Cl)ccc(Cl)c1Cl (racemic) [ML302F, 2-Mercapto-3-(2,3,6-trichlorophenyl)acrylic acid] | 99.2 ± 6.4 | N.I. | 114 | N.I. | 95 ± 6 | non-toxic | 100 | N.I. | – | – | – | – | – | – | – | – | – | – | – | –
C[C@@H](O)[C@H]1C(=O)N2C(C(=O)O)=C(S[C@@H]3CN[C@H](C(=O)N(C)C)C3)[C@H](C)[C@H]12 [Meropenem, meropenem] | – | – | – | – | – | – | – | – | 32 | 64 | 64 | 32 | 64 | 64 | 128 | 128 | 128 | 32 | 32 | 128

— US10351525B2, “Beta lactamase inhibitors” (Oxford University Innovation Limited, priority 2014, dated 2019)
